Measurements published in PubChem BioAssay (NCI).
Where “and” joins values, the source holds several entries; their conditions need not be identical. Equal values may be shown once.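 These data come from cells grown in 96-well plates and exposed to compound for 48 hours at five concentrations. GI50: concentration for 50% inhibition of growth. The concentration for full growth arrest is given as TGI.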

Assays:
Experiment in all cases: inhibition of tumour cell growth, NCI panel, 48 h
[1] = test system: NCI-H460 lung
[2] = test system: RPMI-8226 leukemia
[3] = test system: K-562 leukemia
[4] = test system: SK-MEL-2 melanoma
[5] = test system: NCI-H522 lung
[6] = test system: HT29 colon
[7] = test system: UO-31 renal
[8] = test system: MALME-3M melanoma
[9] = test system: SNB-75 CNS
[10] = test system: CCRF-CEM leukemia

Row | SMILES | TGI [1] | TGI [2] [µM] | TGI [3] [µM] | TGI [4] [µM] | TGI [5] [µM] | TGI [6] [µM] | TGI [7] [µM] | TGI [8] [µM] | TGI [9] [µM] | TGI [10] [µM] | GI50 [4] [µM] | GI50 [1] [µM] | GI50 [3] [µM] | GI50 [5] [µM] | GI50 [6] [µM] | GI50 [7] [µM] | GI50 [8] [µM] | GI50 [10] [µM] | GI50 [9] [µM]
1 | Cc1cc(-c2[nH]c(C(=O)O)cc2I)on1 | > 100 µM | > 100 | > 100 | > 100 | > 100 | > 100 | > 100 | > 100 | > 100 | – | – | – | – | – | – | – | – | – | –
2 | Cc1ccc(OCC2OC(n3cnc4c(N(C)C)nc(Br)nc43)CC2Oc2ccc(C)cc2)cc1 (stereo not given) | > 100 µM | > 100 | > 100 | > 100 | > 100 | > 100 | > 100 | > 100 | – | > 100 | – | – | – | – | – | – | – | – | –
3 | c1ccc(-c2sc(-c3cccs3)cc2Cc2cccs2)cc1 | > 10 µM | > 10 | > 10 | – | > 10 | > 10 | > 10 | > 10 | > 10 | > 10 | – | – | – | – | – | – | – | – | –
4 | CCOC(=O)Nc1c(C#N)[n+]([O-])c2cc(Cl)c(Cl)cc2[n+]1[O-] | 34.5 µM | 16.7 | 39.9 | 48 | – | 37.3 | 31.4 | 37.6 | 41.8 | 22.9 | – | – | – | – | – | – | – | – | –
5 | NCCCn1c2ccccc2c2c3c(c4c(c21)CCC(O)CC4)C(=O)NC3=O (stereo not given) | 14 µM | 14.6 | 8.5 | 24.1 | 13.2 | 4.99 | 19.9 | 15.8 | – | 10.4 | – | – | – | – | – | – | – | – | –
6 | COc1cc2c(c(OC)c1OC)-c1ccc(SC)c(=O)cc1[C@@H](OC(C)=O)CC2 | > 100 µM | > 59.9 | > 100 | – | – | – | > 52.5 | > 100 | > 82.1 | 0.0312 | – | – | – | – | – | – | – | – | –
7 | CCC1C(c2cccc(OC)c2O)c2cc3c(cc2OC1N1CCCC1)OCO3 (stereo not given) | 55.3 µM | 34 | 38.7 | 43.5 | 35.4 | 37.5 | 39.5 | – | 92.4 | 46.7 | – | – | – | – | – | – | – | – | –
8 | CN(C(=O)Cc1ccc(Cl)c(Cl)c1)[C@H]1CCCC[C@@H]1[N+]1(C)CCCC1 | – | > 100 | > 100 | > 100 | > 100 | > 100 | > 100 | > 100 | – | – | – | – | – | – | – | – | – | – | –
9 | CC(C)C(C/C=C1\CC(CO)(COC(=O)c2ccccc2)OC1=O)C(C)C (stereo not given) | 43.7 µM | – | 44.1 | > 100 | 38.5 | 38.2 | 32.4 | 31.9 | 29.1 | 44.1 | – | – | – | – | – | – | – | – | –
10 | CCOC(=O)Oc1cc2c(c(OC)c1OC)-c1ccc(SC)c(=O)cc1C(NC(=O)C(F)(F)F)CC2 (stereo not given) | 0.753 µM and 2.47 µM | 14.1 | > 100 | 51.4 | 0.00253 | – | 75.6 | – | > 100 | 4.92 | 0.00303 | – | – | – | – | – | – | – | –
11 | O=[N+]([O-])/C(C(Cl)=C(Cl)Cl)=C1\NCCO1 | > 100 µM | > 100 | > 100 | > 100 | > 100 | > 100 | > 100 | > 100 | – | 66.7 | – | – | – | – | – | – | – | – | –
12 | N#Cc1c(SCc2ccccc2)nc(-c2ccccc2)[nH]c1=S | 51.4 µM | 89.9 | > 100 | 32.4 | – | 60.1 | 35 | > 100 | 47.1 | > 100 | – | – | – | – | – | – | – | – | –
13 | CC(C)[C@@H]1CC[C@@H](C)C[C@H]1OC(=O)/C=C1/C2C=CC(O2)C1C(=O)O[C@@H]1C[C@H](C)CC[C@H]1C(C)C (stereo not given in full) | > 100 µM | > 100 | > 100 | – | > 100 | > 100 | > 100 | > 100 | > 100 | > 100 | – | – | – | – | – | – | – | – | –
14 | C=CC1ON(Cc2ccccc2)CCc2cc(OC)c(OC)cc21 (stereo not given) | > 100 µM | > 100 | > 100 | – | > 100 | > 100 | > 100 | > 100 | > 100 | > 100 | – | – | – | – | – | – | – | – | –
15 | CC(C)=CC(=O)O[C@H]1C(=O)O[C@@H]2C[C@H]3[C@H](C)C(=O)C(O[C@@H]4O[C@H](CO)[C@@H](O)[C@H](O)[C@H]4O)=C[C@]3(C)[C@H]3[C@@H](O)[C@H](O)[C@]4(C(=O)O)OC[C@]32[C@@H]14 | > 100 µM | – | > 100 | – | 52.6 | > 100 | > 100 | 61.1 | > 100 | > 100 | – | 32 | 25.8 | 29 | 35.6 | 31.3 | 24.2 | 36.3 | –
16 | Cc1c(C(=O)N2CCN(c3ccc([N+](=O)[O-])cc3)CC2)[n+](=O)c2cc(Cl)c(Cl)cc2n1[O-] | 56.7 µM | 63.4 | > 100 | > 100 | 32.7 | 90.5 | – | 48.4 | – | > 100 | – | – | – | – | – | – | – | – | –
17 | O=C(/C=C/c1cccc(Br)c1)c1cccs1 | 31.6 µM | 5.42 | 16.6 | 44.1 | – | 25.3 | 25.7 | 41.6 | 28.2 | 23.6 | – | – | – | – | – | – | – | – | –
18 | COC(=O)c1cc(NC(=O)c2cc(NC(=O)c3cc([N+](=O)[O-])cn3C)cn2C)cn1C | > 100 µM | > 100 | > 100 | > 100 | – | > 100 | > 100 | > 100 | > 100 | > 100 | – | – | – | – | – | – | – | – | –
19 | COc1ccccc1-c1cc(=O)c2ccccc2[nH]1 | > 100 µM | > 100 | > 100 | – | > 100 | – | > 100 | > 100 | > 100 | > 100 | – | – | – | – | – | – | – | – | –
20 | Cn1c(C(C#N)c2nc(Cl)ncc2Br)nc2ccccc21 (stereo not given) | > 100 µM | > 100 | – | – | > 100 | > 100 | > 100 | > 100 | > 100 | – | – | – | – | – | – | – | – | – | –
21 | CCOC(=O)c1c(Br)c(-c2ccc(Br)cc2)c(Br)n1C | > 100 µM | 42.3 | 35.1 | – | 44.5 | 42.5 | > 100 | 62.7 | 49.7 | 31.5 | – | – | 11.3 | 11.2 | – | – | – | – | 5.3
